The subject of test [1] is Staphylococcus aureus MW2 (mecA+). As to the kind of experiment: IC50 (growth, competition assay). As to conditions: cefoxitin: subinhibitory. A digest of the protocol:
(§1)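 Per plate, DsRed (540/590) and GFP (485/520) readings were normalized between the medians of the single-strain controls, after which No Treatment was fixed at 0.5. These readings came from a 1:1 mix of pre-induced fluorescent S. aureus MW2 strains with and without the resistance gene, grown for 20 h at 37 °C and 90% humidity, unshaken, in LB with a daily-set subinhibitory drug dose in 1536-well plates. Per-strain IC50 meant the dose halving the No Treatment signal, or the maximal signal.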

Test [2] concerns Staphylococcus aureus MW2 delta-mecA (mecA-). The test is described as follows: IC50 (growth, competition assay). As to conditions: cefoxitin: subinhibitory. A digest of the protocol: as §1

What is called pIC50 is the negative decadic logarithm of the IC50, by convention in mol/L. A higher pIC50 goes with a small IC50.

pIC50: −log10 of the molar value. “And” between values parts separate entries of the source, which are not always exact repeats. Equal values may be shown once. Where a name gives a salt, the structure may show the parent alone. Bounds are passed on as bounds.

For the compound `CCCCCCCCc1ccc(CCC(N)(CO)CO)cc1` [Fingolimod (FTY720)], the pIC50 in test [1] (fluorescent label: DsRed) was 4.82 and 4.83; in test [1] (fluorescent label: GFP) it was 4.73 and 4.83; in test [2] (fluorescent label: DsRed), 4.93 and > 5.01; in test [2] (fluorescent label: GFP) it was 4.97 and > 5.01.
Take `CO[C@H]1/C=C/O[C@@]2(C)Oc3c(C)c(O)c4c(O)c(c(/C=N/N5CCN(C6CCCC6)CC5)c(O)c4c3C2=O)NC(=O)/C(C)=C\C=C\[C@H](C)[C@H](O)[C@@H](C)[C@@H](O)[C@@H](C)[C@H](OC(C)=O)[C@@H]1C` [Rifapentine]: the pIC50 in test [1] (fluorescent label: DsRed), in test [1] (fluorescent label: GFP), in test [2] (fluorescent label: DsRed) and in test [2] (fluorescent label: GFP) was above 6.30 each time.
With `O=Nc1c(-c2c(O)[nH]c3cc(Br)ccc23)[nH]c2ccccc12` [BIO], the pIC50 in test [1] (fluorescent label: DsRed), in test [1] (fluorescent label: GFP), in test [2] (fluorescent label: DsRed) and in test [2] (fluorescent label: GFP) was above 5.01 each time.
Turning to `CN(C)c1ccc(O)c2c1C[C@H]1C[C@H]3[C@H](N(C)C)C(O)=C(C(N)=O)C(=O)[C@@]3(O)C(O)=C1C2=O` [Minocycline hydrochloride], the pIC50 in test [1] (fluorescent label: DsRed), in test [1] (fluorescent label: GFP), in test [2] (fluorescent label: DsRed) and in test [2] (fluorescent label: GFP) was above 5.01 throughout.
On to `CCCCCCCCCCCCCCCCOP(=O)([O-])OCC[N+](C)(C)C` [Miltefosine (Hexadecylphosphocholine)], for which the negative-log IC50 (pIC50) in test [1] (fluorescent label: DsRed) was below 3.82; in test [1] (fluorescent label: GFP) it was below 3.82; in test [2] (fluorescent label: DsRed), 4.44; in test [2] (fluorescent label: GFP) it was 4.25.
Consider `O=C1Nc2ccc(I)cc2/C1=C/c1cc(Br)c(O)c(Br)c1` [GW5074], for which the pIC50 in test [1] (fluorescent label: DsRed), in test [1] (fluorescent label: GFP), in test [2] (fluorescent label: DsRed) and in test [2] (fluorescent label: GFP) was above 5.01 throughout.
Take `Cc1cnc(-c2ccccc2C(C)C)nc1NCc1ccc(-n2ccnn2)cc1` [ML323]: the pIC50 in test [1] (fluorescent label: DsRed) is 4.45; in test [1] (fluorescent label: GFP), 4.30; in test [2] (fluorescent label: DsRed) it was above 5.01; in test [2] (fluorescent label: GFP), above 5.01.
For `O=C(C=Cc1ccc(O)cc1)c1ccccc1O` [2',4-DIHYDROXYCHALCONE], the pIC50 in test [1] (fluorescent label: DsRed) was 4.39; in test [1] (fluorescent label: GFP), 4.24; in test [2] (fluorescent label: DsRed), 4.57; in test [2] (fluorescent label: GFP) it was 4.62.
`CO/N=C1\CN(c2nc3c(cc2F)c(=O)c(C(=O)O)cn3C2CC2)CC1CN` (stereo not drawn) [FACTIVE]: the pIC50 in test [1] (fluorescent label: DsRed), in test [1] (fluorescent label: GFP), in test [2] (fluorescent label: DsRed) and in test [2] (fluorescent label: GFP) was above 5.01 throughout.
On to `CO/N=C(\C(=O)N[C@@H]1C(=O)N2C(C(=O)O)=C(CSc3nc(=O)c(O)nn3C)CS[C@H]12)c1csc(N)n1` [ROCEPHIN], for which the pIC50 in test [1] (fluorescent label: DsRed) was below 3.82; in test [1] (fluorescent label: GFP), below 3.82; in test [2] (fluorescent label: DsRed) it was above 5.01; in test [2] (fluorescent label: GFP) it was above 5.01.
`Cc1cc2c(C(C)C)c(O)c(O)c(C=O)c2c(O)c1-c1c(C)cc2c(C(C)C)c(O)c(O)c(C=O)c2c1O` [GOSSYPOL]: the pIC50 in test [1] (fluorescent label: DsRed), in test [1] (fluorescent label: GFP), in test [2] (fluorescent label: DsRed) and in test [2] (fluorescent label: GFP) was above 5.01 in each case.
As to `C[C@H]1O[C@@H](n2cc(F)c(=O)[nH]c2=O)[C@H](O)[C@@H]1O` [FURTULON], the pIC50 was 4.99 in test [1] (fluorescent label: DsRed), above 5.01 in test [1] (fluorescent label: GFP), above 5.01 in test [2] (fluorescent label: DsRed) and above 5.01 in test [2] (fluorescent label: GFP).
As to `Cc1cc(C2CCCCC2)n(O)c(=O)c1` [Ciclopirox ethanolamine], the pIC50 in test [1] (fluorescent label: DsRed) is 4.61 and 4.30; in test [1] (fluorescent label: GFP), 4.53 and 4.22; in test [2] (fluorescent label: DsRed) it was 4.55 and 4.21; in test [2] (fluorescent label: GFP), 4.53 and 4.24.
Regarding `O=[N+]([O-])c1ccc(O)c2ncccc12` [ENTEROCOL], the pIC50 in test [1] (fluorescent label: DsRed) was 4.79; in test [1] (fluorescent label: GFP), 4.26; in test [2] (fluorescent label: DsRed) it was 4.42; in test [2] (fluorescent label: GFP) it was above 5.01.
`COC(=O)[C@@]1(C)CCC[C@]2(C)c3ccc(O)c(C(C)C)c3CCC12` (stereo partly drawn) [TOTAROL-19-CARBOXYLIC ACID, METHYL ESTER]: the pIC50 in test [1] (fluorescent label: DsRed) is 4.56; in test [1] (fluorescent label: GFP), 4.20; in test [2] (fluorescent label: DsRed), 4.18; in test [2] (fluorescent label: GFP), 4.81.
On the same counts, the results for `Cc1cc(N)c2ccccc2[n+]1CCCCCCCCCC[n+]1c(C)cc(N)c2ccccc21` [Dequalinium Chloride] are above 5.01, 4.95, above 5.01 and above 5.01.
Consider `N[C@@H](Cc1cc(I)c(Oc2ccc(O)c(I)c2)c(I)c1)C(=O)O` [CYTOMEL], for which the pIC50 in test [1] (fluorescent label: DsRed) was 4.22; in test [1] (fluorescent label: GFP) it was 4.31; in test [2] (fluorescent label: DsRed), 4.85; in test [2] (fluorescent label: GFP) it was above 5.01.
On the same counts, the results for `NC(=O)c1cnccn1` [TEBRAZID] are 4.57, 4.45, 4.74 and 4.69.
Turning to `Cc1ccc(-c2cc(C(F)(F)F)nn2-c2ccc(S(N)(=O)=O)cc2)cc1` [Celecoxib], the pIC50 is 3.94 and 3.95 in test [1] (fluorescent label: DsRed); 3.95 and 4.02 in test [1] (fluorescent label: GFP); 5.07 and 4.70 in test [2] (fluorescent label: DsRed); 5.00 and 4.74 in test [2] (fluorescent label: GFP).
Consider `C#CCCCCCCCCCCCC(O)CC(O)CO.C=CCCCCCCCCCCCC(O)CC(O)CO` (stereo not drawn), for which the pIC50 in test [1] (fluorescent label: DsRed) was 4.78; in test [1] (fluorescent label: GFP) it was 4.58; in test [2] (fluorescent label: DsRed), above 5.01; in test [2] (fluorescent label: GFP) it was above 5.01.
Turning to `C=C(CC)C(=O)c1ccc(OCC(=O)O)c(Cl)c1Cl` [EDECRIN], the pIC50 in test [1] (fluorescent label: DsRed) is 4.47; in test [1] (fluorescent label: GFP) it was 4.44; in test [2] (fluorescent label: DsRed), above 5.01; in test [2] (fluorescent label: GFP) it was above 5.01.
Regarding `NC[C@H]1O[C@H](O[C@H]2[C@H](O)[C@@H](O[C@H]3O[C@H](CO)[C@@H](O)[C@H](N)[C@H]3O)[C@H](N)C[C@@H]2N)[C@H](N)C[C@@H]1O` [Tobramycin], the pIC50 in test [1] (fluorescent label: DsRed) was 4.80; in test [1] (fluorescent label: GFP) it was 4.56; in test [2] (fluorescent label: DsRed), 4.49; in test [2] (fluorescent label: GFP) it was 4.47.

The record behind these values is the supplement of paper PMC7695840.
